{
  "source": "patent US20240218022A1",
  "about": "“ANTI-VISTA MACROCYCLIC PEPTIDES AND COMPOSITIONS” (BRISTOL-MYERS SQUIBB COMPANY, priority 2022, published 2024)",
  "molecular_target": "T1, mouse VISTA (mVISTA) (Mus musculus, UniProt Q9D659)",
  "T1 construct": "expressed in transfected cells; host or cells: Human embryonic kidney 293T cells",
  "T1 sequence (Q9D659 33-308)": "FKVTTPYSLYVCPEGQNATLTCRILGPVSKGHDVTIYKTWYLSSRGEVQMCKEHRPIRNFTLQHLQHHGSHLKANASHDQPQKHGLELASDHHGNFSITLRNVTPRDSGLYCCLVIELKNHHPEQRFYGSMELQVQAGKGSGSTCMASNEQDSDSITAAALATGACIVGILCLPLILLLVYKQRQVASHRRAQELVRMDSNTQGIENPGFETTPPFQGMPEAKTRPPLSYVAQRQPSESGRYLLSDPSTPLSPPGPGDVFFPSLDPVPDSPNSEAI",
  "test": "Cell-Based Binding High-Content Assay For mVISTA (HC CBA mVISTA)",
  "procedure,_shortened": "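Competition of compound with a biotinylated peptide (final 2 nM, 30 min at RT) for binding to mVISTA on 293T cells, run under no-wash or wash (1 h compound preincubation then removal) formats. Readout by Alexa 647–streptavidin imaging on a high-content platform; four-parameter logistic fit gave IC50.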",
  "note": "Read-outs that look alike come from different tables or passages of the source. Starred links: 1 amine or outer side, 2 acyl side, 3 side chain; linkers in the order of their positions; H or OH if unused. Positions of bridges follow the written chain, without caps; N, C: chain ends. Non-standard residues stand in square brackets, D forms with d. Residues, ends and D or L forms follow the SMILES beside them. ξ: configuration not given here. Phe(4-COOH) = N[C@@H](Cc1ccc(C(=O)O)cc1)C(=O)O; Phe(3-Me) = Cc1cccc(C[C@H](N)C(=O)O)c1; γGlu = O=C(O)[C@H](CCC(=O)[*:2])N[*:1]; 2Nal = N[C@@H](Cc1ccc2ccccc2c1)C(=O)O; βAsp = O=C(O)[C@H](CC(=O)[*:2])N[*:1]; Tic = O=C(O)[C@@H]1Cc2ccccc2CN1; Cit = NC(=O)NCCC[C@H](N)C(=O)O; Ile(3ξ) = CCC(C)[C@H](N)C(=O)O; NMeL = CN[C@@H](CC(C)C)C(=O)O; Ahp(2) = CCCCC[C@H](N)C(=O)O; NMeNle = CCCC[C@H](NC)C(=O)O; Tle = CC(C)(C)[C@H](N)C(=O)O; NMeV = CN[C@H](C(=O)O)C(C)C; NMeS = CN[C@@H](CO)C(=O)O; Pip = O=C(O)[C@@H]1CCCCN1; NHexGly = CCCCCCNCC(=O)O; Nle = CCCC[C@H](N)C(=O)O; Aun = NCCCCCCCCCCC(=O)O; AEEA = NCCOCCOCC(=O)O",
  "data": [
    {"smiles": "CCCCCCN1CC(=O)N[C@@H](Cc2ccc(O)cc2)C(=O)N[C@@H](CCCC)C(=O)N[C@@H](CC(N)=O)C(=O)N[C@@H](CCCNC(N)=O)C(=O)N(C)[C@@H](CCCC)C(=O)N[C@@H](CCCCC)C(=O)N2CCC[C@H]2C(=O)N[C@@H](C(C)CC)C(=O)N[C@@H](CO)C(=O)N[C@H](C(=O)NCC(N)=O)CSCC(=O)N[C@@H](Cc2ccccc2)C(=O)N[C@@H](Cc2c[nH]c3ccccc23)C(=O)N[C@@H](CC(=O)O)C1=O", "note": "(stereo partly shown) [Example 1388] ({CH2CO}-FWD[NHexGly]Y[Nle]N[Cit][NMeNle][Ahp(2)]P[Ile(3ξ)]SCG-NH2; thioether N-14)", "values": [
      {"measurement": "IC50", "setting": "read-out: HC CBA mVISTA IC50", "value": 16.4, "unit": "nM"}
    ]},
    {"smiles": "CCCCCCN1CC(=O)N[C@@H](Cc2ccc(O)cc2)C(=O)N[C@@H](CC(C)C)C(=O)N[C@@H](CC(N)=O)C(=O)N[C@@H](CCCNC(=N)N)C(=O)N(C)[C@@H](C(C)C)C(=O)N[C@@H](CCCCC)C(=O)N2CCC[C@H]2C(=O)N[C@@H](C(C)(C)C)C(=O)N[C@@H](CO)C(=O)N[C@H](C(=O)NCCOCCOCC(=O)N[C@@H](CCC(=O)NCCOCCOCC(=O)NCCCCCCCCCCC(=O)O)C(=O)O)CSCC(=O)N[C@@H](Cc2ccccc2)C(=O)N[C@@H](Cc2c[nH]c3ccccc23)C(=O)N[C@@H](CC(=O)O)C1=O", "note": "[compound 2272] ({CH2CO}-FWD[NHexGly]YLNR[NMeV][Ahp(2)]P[Tle]SC[AEEA][γGlu][AEEA][Aun]-OH; thioether N-14)", "values": [
      {"measurement": "IC50", "setting": "read-out: HC CBA mVISTA IC50", "value": 34.4, "unit": "nM"}
    ]},
    {"smiles": "CCCCCCN1CC(=O)N[C@@H](Cc2ccc(O)cc2)C(=O)N[C@@H](CCCC)C(=O)N[C@@H](CC(N)=O)C(=O)N[C@@H](CCCNC(=N)N)C(=O)N(C)[C@@H](CCCC)C(=O)N[C@@H](CCCCC)C(=O)N(C)[C@@H](CC(C)C)C(=O)N[C@@H](C(C)C)C(=O)N[C@@H](CO)C(=O)N[C@H](C(=O)N[C@@H](CC(=O)NCCOCCOCC(=O)NCCCCCCCCCCC(=O)O)C(=O)O)CSCC(=O)N[C@@H](Cc2ccccc2)C(=O)N[C@@H](Cc2c[nH]c3ccccc23)C(=O)N[C@@H](CC(=O)O)C1=O", "note": "[Example 2180] ({CH2CO}-FWD[NHexGly]Y[Nle]NR[NMeNle][Ahp(2)][NMeL]VSC[βAsp][AEEA][Aun]-OH; thioether N-14)", "values": [
      {"measurement": "IC50", "setting": "read-out: HC CBA mVISTA IC50", "value": 18.5, "unit": "nM"}
    ]},
    {"smiles": "CCCCCCN1CC(=O)N[C@@H](Cc2ccc(O)cc2)C(=O)N[C@@H](CC(C)C)C(=O)N[C@@H](CC(N)=O)C(=O)N[C@@H](CCCNC(=N)N)C(=O)N(C)[C@@H](CO)C(=O)N[C@@H](CCCCC)C(=O)N2CCC[C@H]2C(=O)N[C@@H](C(C)(C)C)C(=O)N[C@@H](CC(=O)O)C(=O)N[C@H](C(=O)N[C@@H](CC(=O)NCCOCCOCC(=O)N[C@@H](CC(=O)O)C(=O)NCCOCCOCC(=O)NCCCCCCCCCCC(=O)O)C(=O)O)CSCC(=O)N[C@@H](Cc2ccc(C(=O)O)cc2)C(=O)N[C@@H](Cc2ccc(O)cc2)C(=O)N[C@@H](CC(=O)O)C1=O", "note": "[compound 2048] ({CH2CO}-[Phe(4-COOH)]YD[NHexGly]YLNR[NMeS][Ahp(2)]P[Tle]DC[βAsp][AEEA]D[AEEA][Aun]-OH; thioether N-14)", "values": [
      {"measurement": "IC50", "setting": "cell-based binding high-content assay, mVISTA, read-out: HC CBA miPr ISTA IC50", "value": 35, "unit": "nM"}
    ]},
    {"smiles": "CCCCCCN1CC(=O)N[C@@H](Cc2ccc(O)cc2)C(=O)N[C@@H](CCCC)C(=O)N[C@@H](CC(N)=O)C(=O)N[C@@H](CCCNC(N)=O)C(=O)N2Cc3ccccc3C[C@H]2C(=O)N[C@@H](CCCCC)C(=O)N2CCC[C@H]2C(=O)N[C@@H](C(C)C)C(=O)N[C@@H](CC(=O)O)C(=O)N[C@H](C(=O)NCC(N)=O)CSCC(=O)N[C@@H](Cc2ccc3ccccc3c2)C(=O)N[C@@H](Cc2ccc(O)cc2)C(=O)N[C@@H](CC(=O)O)C1=O", "note": "[Ex 1305] ({CH2CO}-[2Nal]YD[NHexGly]Y[Nle]N[Cit][Tic][Ahp(2)]PVDCG-NH2; thioether N-14)", "values": [
      {"measurement": "IC50", "setting": "cell-based binding high-content assay, mVISTA, the 16th table, read-out: HC CBA mVISTA IC50", "value": 10.3, "unit": "nM"}
    ]},
    {"smiles": "CCCCCCN1CC(=O)N[C@@H](Cc2ccc(O)cc2)C(=O)N[C@@H](CCCC)C(=O)NCC(=O)N[C@@H](CCCNC(=N)N)C(=O)N[C@@H](CC(C)C)C(=O)N[C@@H](CCCCC)C(=O)N2CCC[C@H]2C(=O)N[C@@H](C(C)C)C(=O)N[C@@H](CC(=O)O)C(=O)N[C@H](C(=O)N[C@@H](CO)C(=O)O)CSCC(=O)N[C@@H](Cc2cccc(C)c2)C(=O)N[C@@H](Cc2ccc(O)cc2)C(=O)N[C@@H](CC(=O)O)C1=O", "note": "[compound 1435] ({CH2CO}-[Phe(3-Me)]YD[NHexGly]Y[Nle]GRL[Ahp(2)]PVDCS-OH; thioether N-14)", "values": [
      {"measurement": "IC50", "setting": "the 19th table, scaffold drawing 22, read-out: HC CBA mVISTA IC50", "value": 9.4, "unit": "nM"}
    ]},
    {"smiles": "CCCCCCN1CC(=O)N[C@@H](Cc2ccc(O)cc2)C(=O)N[C@@H](CCCCC)C(=O)NCC(=O)N[C@@H](CCCNC(=N)N)C(=O)N[C@@H](CC(C)C)C(=O)N[C@@H](CCCCC)C(=O)N2CCCC[C@H]2C(=O)N[C@@H](C(C)C)C(=O)N[C@@H](CO)C(=O)N[C@H](C(=O)NCC(N)=O)CSCC(=O)N[C@@H](Cc2ccccc2)C(=O)N[C@@H](Cc2ccc(O)cc2)C(=O)N[C@@H](CC(=O)O)C1=O", "note": "[compound 1155] ({CH2CO}-FYD[NHexGly]Y[Ahp(2)]GRL[Ahp(2)][Pip]VSCG-NH2; thioether N-14)", "values": [
      {"measurement": "IC50", "setting": "read-out: HC CBA mVISTA IC50", "value": 24, "unit": "nM"}
    ]}
  ]
}
